Data set [1] has as its system HCV subgenomic replicon in Ava5 cells. Nature of the data set: Combination of SFN with antiviral drugs in replicon cells (CalcuSyn2, Chou and Talalay). In kind it is cell-based, Hepatitis C virus. The settings on record: for CI values at ED75 / CI values at ED90: fixed ratio, 3 days. Here is the method: (§1) The anti-HCV activities of the different combinations were determined by qRT-PCR. The drug combination data were analyzed using CalcuSyn2™ software (Biosoft, Cambridge, UK) based on the method by Chou and Talalay. The multiple drug dose effects and combination index (CI) values were evaluated and presented as antagonism (CI > 1), additivity (CI = 1) or synergism (CI < 1).

Data set [2] relates to JFH-1 virus particle-infected Huh-7 cells. Put plainly: Combination of SFN with antiviral drugs in HCV-infected cells (CalcuSyn2, Chou and Talalay). Format: cell-based, Hepatitis C virus. The settings on record: JFH-1-infected Huh-7 cells; for CI values at ED75 / CI values at ED90: fixed ratio, 3 days. Here is the method: as §1
In data set [3] the test system is HCV subgenomic replicon (genotype 1b) in Ava5 cells. Put plainly: Anti-HCV activity in HCV replicon (Ava5) cells, qRT-PCR / Western blotting. In kind it is cell-based, Hepatitis C virus. Particulars: for Selective Index (SI): CC50/EC50, Ava5 cells; for EC50: read-out: Anti-HCV activity (EC50). Here is the method:
Huh-7, Huh7.5, Ava5 (harboring HCV subgenomic replicon; genotype 1b) and Huh7.5/J6/JFHEMCVIRESRlucNeo cells (harboring HCV subgenomic replicon RNA and renilla luciferase reporter gene; genotype 2a) obtained from Apath, LLC (St. Louis, MO) were routinely passaged in Dulbecco’s modified Eagle’s medium containing 10% heat-inactivated fetal bovine serum, 1% nonessential amino acids, and 1% antibiotic-antimycotic in a 37°C incubator with a humidified atmosphere containing 5% CO2. Sulforaphane (SFN), phenethyl isothiocyanate, benzyl isothiocyanate, benzyl isothiocyanate, butyl isothiocyanate, allyl isothiocyanate, and HO-1-specific inhibitor (tin protoporphyrin IX dichloride; SnPP) were obtained from Sigma Aldrich Co. (St. Louis, MO, USA). Biliverdin was obtained from MP Biomedicals, Inc (Santa Ana, CA, USA). […] Daclatasvir and telaprevir were obtained from Legend Stat International Co., Ltd (Omdurman, Sudan). Sofosbuvir was obtained from Shanghai Haoyuan Chemexpress Co., Ltd. (Shanghai, China). These compounds were stored at a concentration of 10 mM in 100% dimethyl sulfoxide (DMSO) at 4°C until use. All the reactions were performed using a final concentration of 0.1% DMSO.
(§2) Total cellular RNA extracted from cultured cells was purified using the Total RNA Miniprep Purification Kit (GMbiolab Co., Ltd, Taiwan). RNA samples were reverse transcribed into complementary DNA using the M-MLV Reverse Transcription System (Promega). Quantitative real-time polymerase chain reaction (qRT-PCR) was performed to assess the relative levels of gene expression using the ABI Step One Real-Time PCR-System (ABI Warrington, UK). Glyceraldehydes-3-phosphate dehydrogenase (gapdh) gene expression was used as the endogenous control for normalization in all qRT-PCR analyses. Relative expression was calculated using the comparative Ct method. Absolute quantitation of HCV RNA copies was calculated and determined relative to standard curves comprised of serial dilution of expression plasmids containing the coding sequence of HCV NS5B using RT-qPCR. The primer sequences primers for qRT-PCR were used as previously described (Table 1).
(§3) Western blotting was performed as previously described. Proteins from cell lysates were separated using SDS-PAGE and transferred onto PVDF membranes. The membranes were blocked with 5% nonfat milk in phosphate-buffered saline containing Tween 20 (PBST) and incubated overnight at 4°C with primary antibodies against GAPDH (1:10,000; GeneTex, CA, USA), NS5B (1:5,000; Abcam, Cambridge, MA, USA), Nrf2 (1:3,000; GeneTex), HO-1 (1:3,000; GeneTex), biliverdin reductase A (BVRA), Keap1 and Bach1 (1:1,000; Abcam), and total-phohphoinositide 3-kinase (PI3K) or phosphor-PI3K (1:1000; Cell Signaling Technology, Inc., Beverly, MA, USA). The immunoreactive blot signals were detected using the enhanced chemiluminescence Western blotting reagent (Perkin-Elmer, CT, USA).
To investigate the anti-HCV activity of SFN and its analogs (Fig 1A), Huh-7-derived Ava5 cells that harbor an HCV subgenomic RNA replicon were treated with increasing concentrations of SFN for 3 days. The anti-HCV activity and cytotoxicity of SFN and its analogs were analyzed by qRT-PCR and MTS assay, respectively. […] Moreover, the anti-HCV replication activity of SFN was analyzed by Western blotting and qRT-PCR.

A short description of data set [4]: Cell viability / cytotoxicity, MTS assay. In kind it is cell-based. The settings on record: human; Ava5 cells, MTS assay; read-out: Cyto-Toxicity (CC50). The source says:
(§4) The CellTiter 96 Aqueous One Solution Cell Proliferation assay system (Promega, Madison, WI, USA), which is a colorimetric approach for the detection of the cytotoxic effect of a compound, was used to measure cell viability according to the manufacturer’s protocol. […] The absorbance values were detected at 490 nm using a 96-well plate reader (Bio-Rad, Hertfordshire, UK).

The test system of data set [5] is IFN response (IFN-α, ISRE, OAS1, OAS2, OAS3, PKR). As to the method:
as §2

The test system of data set [6] is HCV JFH-1 in Huh7.5 cells.
Description: The effect of SFN on HCV entry was determined according to previously described methods [22]. Briefly, Huh7.5 cells were infected with JFH-1 and treated with SFN for 1 hour at 37°C (endocytosis/fusion period). Finally, cells were washed and incubated in complete culture medium at 37°C for 45 hours. Subsequently, the cells were collected to quantify intracellular HCV RNA copy numbers. The effect of SFN on assembly and secretion were determined according to previously described methods [23]. The Huh7.5 cells were infected with JFH-1 and treated with indicated concentration of SFN. The viral supernatants and cell pellets were collected at 3 days postinfection for virus titration by qRT-PCR.
(A) Huh7.5 cells were infected with JFH-1 and treated with SFN for 1 hr at 37°C and then the infectecells were washed and incubated in complete culture medium. The intracellular HCV RNA copy numbers were quantified by qRT-PCR. The treatment of heparin served as positive control for the inhibition of HCV entry. The relative HCV entry were presented as percentage changes compared to the SFN-untreated cells, which were considered as 100%. (B) Huh7.5 cells were infected with JFH-1 and then treated with SFN for 72 hrs. The supernatant and cell lysate were collected and the HCV RNA copy numbers were quantified by qRT-PCR.
The next data set has as its system Nrf2/ARE. Nature of the data set: ARE transactivation and Nrf2 expression in Ava5 cells (p3xARE-Luc, Western blotting). On the technique in general: A western blot detects proteins with antibodies after separation by electrophoresis.
A further data set relates to bilirubin / BVR. The settings on record: Ava5 cells, 3 days.
The next data set concerns Ava5 cells. Put plainly: Cell viability / cytotoxicity, MTS assay. Particulars: at doses where viral replication was inhibited. In kind it is cell-based.
Description: as §4
For orientation: Tetrazolium dyes change colour on reduction, which living cells bring about.

Another data set concerns HO-1. The settings on record: Ava5 cells, 0–10 μM, 3 days. Here is the method:
as §2
Western blotting was performed as previously described. Proteins from cell lysates were separated using SDS-PAGE and transferred onto PVDF membranes. […] The immunoreactive blot signals were detected using the enhanced chemiluminescence Western blotting reagent (Perkin-Elmer, CT, USA).

A further data set relates to PI3K. Particulars: Ava5 cells, 7.5 μM SFN, 15 min after treatment. Here is the method: as §3
A further data set addresses HCV NS3/4A protease (Hepatitis C virus genotype 1b, UniProt Q9WMX2). Particulars: Huh-7 cells, 0–10 μM, 3 days, compared to untreated controls; restored with SnPP.
The conditions of data set [7]: rats, oral dosing of 50 μmol of SFN, cited from earlier work.
Data set [8] deals with HCV JFH-1 (genotype 2a) in Huh-7 cells. Particulars: JFH-1-infected Huh-7 cells, 3 days. As to the method:
HCV infectious particles (JFH-1; genotype 2a) were produced as previously described. HCV infection assay was used to determine the antiviral effect of SFN. Huh-7 cells were seeded in 24-well plates at a density of 5 × 10^4 cells per well and were infected with HCV for 6 h at a multiplicity of infection (MOI) of 0.1. The HCV-infected cells were treated with different concentrations (0–10μM) of SFN and incubated for 3 days, following which total RNA samples were extracted and subjected to qRT-PCR analysis for the quantification of HCV replication.

Setting [9] is: Hepatitis C virus, 72 h, Ava5 cells, 3 days, HCV RNA levels by qRT-PCR.

SMILES strings stand for the structures. Like-named read-outs stand apart in the source and are kept apart here.

The values that follow come from publication PMC4811417, “Sulforaphane Suppresses Hepatitis C Virus Replication by Up-Regulating Heme Oxygenase-1 Expression through PI3K/Nrf2 Pathway” (PLoS ONE, 2016).

By EC50 is commonly meant the midpoint of the concentration-response curve. The term CC50 denotes the concentration that lowers cell viability or growth by half. As a reminder, the IC50 is the point on the concentration scale where inhibition reaches its midpoint.

Sequence of HCV NS3/4A protease (Q9WMX2 1027-1657): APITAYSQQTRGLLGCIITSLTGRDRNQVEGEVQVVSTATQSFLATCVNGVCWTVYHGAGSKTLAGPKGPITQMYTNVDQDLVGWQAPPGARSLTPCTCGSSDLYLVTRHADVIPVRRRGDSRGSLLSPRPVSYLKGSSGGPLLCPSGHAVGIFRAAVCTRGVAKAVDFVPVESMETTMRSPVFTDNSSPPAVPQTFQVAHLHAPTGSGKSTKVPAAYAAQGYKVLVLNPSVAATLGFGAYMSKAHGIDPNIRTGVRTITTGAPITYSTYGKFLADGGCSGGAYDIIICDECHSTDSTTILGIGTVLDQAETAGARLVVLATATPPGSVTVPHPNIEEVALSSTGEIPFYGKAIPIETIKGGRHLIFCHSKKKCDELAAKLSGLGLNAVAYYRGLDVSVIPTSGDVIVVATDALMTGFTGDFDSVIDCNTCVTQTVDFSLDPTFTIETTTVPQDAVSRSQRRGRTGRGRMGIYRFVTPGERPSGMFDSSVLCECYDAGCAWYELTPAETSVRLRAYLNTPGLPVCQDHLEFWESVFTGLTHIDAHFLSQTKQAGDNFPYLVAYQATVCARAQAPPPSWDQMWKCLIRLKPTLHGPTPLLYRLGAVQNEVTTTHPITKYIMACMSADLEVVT
Sequence of HCV NS3/4A protease (Q9WMX2 1658-1711): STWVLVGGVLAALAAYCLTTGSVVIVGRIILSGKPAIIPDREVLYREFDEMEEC
Description for HCV NS3/4A protease: The supernatants were harvested for measurement of SEAP activity by Phospha-Light assay kit (Tropix, Bedford, UK).
The culture supernatants were harvested and the SEAP activity was analyzed by Phospha-Light assay kit. Telaprevir (1 μM) and biliverdin (100 μM) served as positive controls for anti-HCV protease activity. The relative SEAP activities were presented as fold changes compared to untreated cells, in which as the activity was considered to be 1.
Description for bilirubin / BVR: Intracellular bilirubin level was quantified as previously described [24]. Cells were seeded in 6-well plates at a density of 4 × 10^5 cells per well and treated with SFN at indicated concentrations for 3 days. Cell lysates were harvested and the amount of bilirubin was quantified using Calibrator for Automated Systems (c.f.a.s) (Roche Diagnostics Ltd., South San Francisco, CA, USA) and MeDiPro direct bilirubin test kit (Formosa Biomedical Technology Corp., Taipei, Taiwan). The absorbance values at 546 and 660 nm were measured using the Epoch microplate spectrophotometer (BioTek Instruments, Inc., Winooski, VT, USA).
The parental Huh-7 cells were used to determine basal bilirubin levels. […] Ava5 cells were treated with the indicated concentrations of SFN for 3 days. The expression of BVR was analyzed by qRT-PCR and Western blotting using specific primers and antibodies for BVR and GAPDH, respectively. GAPDH expression was used as protein loading control.

In the case of `COC(=O)N[C@H](C(=O)N1CCC[C@H]1c1nc(-c2ccc(-c3ccc(-c4c[nH]c([C@@H]5CCCN5C(=O)[C@@H](NC(=O)OC)C(C)C)n4)cc3)cc2)c[nH]1)C(C)C` [Daclatasvir], in data set [1], the Influence result is “Synergistic”, the “CI values at ED75” value is 0.5 and the “CI values at ED90” value was 0.4. Further, in data set [2], the Influence result is “Synergistic”, the “CI values at ED75” value was 0.5 and the “CI values at ED90” value was 0.4.
`C=CCN=C=S` [Allyl isothiocyanate, allyl isothiocyanate]: the “Selective Index (SI)” value in [3] is reported as 1.5. Further, in data set [3] (setting [9]), the EC50 was 20 ± 2 µM. The CC50 at 3 days in data set [4] amounted to 33 ± 3 µM.
In the case of `S=C=NCc1ccccc1` [Benzyl isothiocyanate, benzyl isothiocyanate], the “Selective Index (SI)” value in [3] stood at 3. Also, in data set [3] (setting [9]), the EC50 is 20 ± 2 µM. Also, in data set [4], the cytotoxic concentration (CC50) at 3 days stood at 67 ± 2 µM.
As to `CCCCN=C=S` [Butyl isothiocyanate, butyl isothiocyanate], the CC50 at 3 days in data set [4] came to 95 ± 6 µM.
Take `CC(C)OC(=O)[C@H](C)N[P@](=O)(OC[C@H]1O[C@@H](n2ccc(=O)[nH]c2=O)[C@](C)(F)[C@@H]1O)Oc1ccccc1` [Sofobuvir, sofosbuvir]: in data set [1], the Influence entry is given as “Synergistic”, the “CI values at ED75” value is 0.5 and the “CI values at ED90” value was 0.4. Further, in [2], the Influence entry is “Synergistic”, the “CI values at ED75” value is 0.5 and the “CI values at ED90” value is 0.4.
With `CCC[C@H](NC(=O)[C@@H]1[C@H]2CCC[C@H]2CN1C(=O)[C@@H](NC(=O)[C@@H](NC(=O)c1cnccn1)C1CCCCC1)C(C)(C)C)C(=O)C(=O)NC1CC1` [Telapriver, telaprevir], in [1], the Influence result is recorded as “Synergistic”, the “CI values at ED75” value is given as 0.7 and the “CI values at ED90” value is listed as 0.6. In addition, in data set [2], the Influence entry is “Synergistic”, the “CI values at ED75” value is reported as 0.6 and the “CI values at ED90” value is reported as 0.5.
For the compound `S=C=NCCc1ccccc1` [Phenethyl isothiocyanate, phenethyl isothiocyanate], the half-maximal effective concentration (EC50) in data set [3] (Hepatitis C virus, Ava5, 72 h) is 2.5 ± 0.5 µM. In data set [4], the CC50 at 3 days was determined as 10 ± 1.5 µM.
For the compound `C[S+]([O-])CCCCN=C=S` (stereo not shown) [Sulforaphane], the “IFN-α2 and IFN-α17 expression” value in data set [5] (Ava5 cells, 3 days, qRT-PCR, attenuated with SnPP) is recorded as “significantly induced”. The “IFN-α levels in culture supernatants” value in [5] (Ava5 cells, ELISA, effective antiviral concentrations, attenuated by SnPP) is “significantly increased”. The “expression of IFN response genes (OAS1, OAS2, OAS3, PKR)” value in data set [5] (Ava5 cells, qRT-PCR, attenuated by SnPP) is reported as “significantly induced”. The ISRE-mediated luciferase activity entry in [5] (pISRE-Luc-transfected Ava5 cells, 3 days, attenuated with SnPP) is on record as “significant induction”. Besides, in [6] (Huh7.5 cells infected with JFH-1, SFN 1 hour), the “inhibition on viral entry” value is “no significant inhibition”. Moreover, the “inhibition on viral assembly” value in [6] (Huh7.5 cells infected with JFH-1, SFN 3 days) was “no significant inhibition”. The “protein levels of Keap1 and Bach1” value in the data set with Nrf2/ARE (Ava5 cells) is given as “did not observe significant changes”. Further, the “expression of Nrf2 in cytoplasmic and nuclear fractions” value in the data set on Nrf2/ARE (Ava5 cells, concentration-dependent) is “significant increase”. In addition, in the data set on Nrf2/ARE (p3xARE-Luc-transfected Ava5 cells, 3 days, effective antiviral concentrations), the ARE-mediated luciferase activity entry is listed as “significantly increased”. Further, in the data set on bilirubin / BVR (0–10 μM), the bilirubin levels result is listed as “significant increase”. Further, the “BVR RNA or protein levels” value in the data set with bilirubin / BVR is recorded as “did not detect any significant changes”. In addition, the “inhibition of viral replication” value in data set [3] (10 μM SFN, Ava5 cells, 3 days, compared to SFN-untreated cells) is 90%. Also, in data set [3] (Ava5 cells, 0–10 μM, 3 days, concentration-dependent), the “HCV protein synthesis and RNA replication” value is given as “significantly reduced”. In addition, the “Selective Index (SI)” value in [3] was about 10. The EC50 in data set [3] (Hepatitis C virus, Ava5, 72 h) came out at 5 ± 1.5 µM. The IC50 in [3] (Hepatitis C virus, Ava5, HCV replicon cells and infectious system, read-out: IC50 value, suppression of HCV protein and RNA levels) amounted to 5.7 ± 0.2 µM. Also, the “cytotoxicity (cell viability by MTS assay)” value in the data set with Ava5 cells is reported as “did not induce significant cytotoxicity”. For the same compound, the CC50 at 3 days in data set [4] is 52 ± 3 µM. In the data set with HO-1, the “HO-1 RNA and protein levels” value was “significantly increased”. Also, the “phosphorylation of PI3K” value in the data set with PI3K is listed as “significantly induced”. Also, the “HCV protease activity (SEAP)” value on HCV NS3/4A protease is given as “significantly decreased”. The plasma concentration result in data set [7] (reached within 4h) was “around 20 μM”. Moreover, in data set [7], the elimination half-life is recorded as 2.2 h and the “time at which plasma concentration of SFN occurred” value was 1 h. The “antiviral activity in the HCV JFH-1 infection system” value in [8] is “exhibited antiviral activity”.
